What all share (test): NCI-60 cell line screen, 48 h
The test system of assay [1] is HOP-62.
The test system of assay [2] is NCI-H23.
The subject of assay [3] is NCI-H522.
Assay [4] deals with SNB-75.
Assay [5] relates to K562.
Assay [6] deals with SK-MEL-2.
Assay [7] has as its system HCT-116.
Assay [8] deals with ACHN.
In assay [9] the test system is Hs-578T.
Assay [10] deals with CCRF-CEM.
The subject of assay [11] is Malme-3M.
For assay [12], the system named is MDA-MB-435.
Assay [13] concerns HT-29.
Assay [14] deals with NCI/ADR-RES.
Assay [15] concerns EKVX.
The test system of assay [16] is TK-10.
For assay [17], the system named is M14.
Assay [18] deals with SN12C.
Assay [19] deals with SR.

Molecules are shown by their SMILES.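 Method: 48-hour compound exposure of cells in 96-well plates, five concentrations, linear interpolation of endpoints. GI50: concentration for 50% inhibition of growth.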 Calls of active or inactive are those of the source. No stated cut-off is given here; in the data, active = GI50 up to about 1.1 µM and inactive = higher. Bounds are passed on as bounds.

The values that follow come from ChEMBL document CHEMBL1201862, “PubChem BioAssay data set” (2004).

For the compound `CCN(CC)c1ccc2c(c1)OC(=O)C(c1nnc(-c3ccc([N+](=O)[O-])cc3)o1)C2` (stereo not given), the GI50 in [1] is > 100 µM (inactive); in assay [2] it was > 100 µM (inactive); in assay [3] it was > 100 µM (inactive); in [4] it was > 100 µM (inactive); in assay [5], 38 µM (inactive); in assay [6] it was > 100 µM (inactive). The GI50 was > 100 µM (inactive) in assay [7]; > 100 µM (inactive) in assay [8]; > 100 µM (inactive) in assay [9]; 34.2 µM (inactive) in [10]; > 100 µM (inactive) in [11]; > 100 µM (inactive) in [12]. Besides, the GI50 is > 100 µM (inactive) in [13]; > 100 µM (inactive) in assay [14]; 10.2 µM (inactive) in assay [15]; > 100 µM (inactive) in assay [16]; > 100 µM (inactive) in [17].
Consider `CS(=O)(=O)c1ccc(/C=N/NC(N)=S)cc1`, for which the GI50 in [1], in assay [2], in assay [3], in assay [4], in [5] and in [7] was > 100 µM (inactive) throughout. For the same compound, the GI50 in assay [8], in assay [9], in [11], in [12], in [13] and in [14] was > 100 µM (inactive) throughout. The GI50 in assay [15], in assay [18], in assay [16] and in assay [17] was > 100 µM (inactive) in each case.
Turning to `CC(C)NC(=O)OCC[S+]([O-])c1c(Cl)c(Cl)nn1C` (stereo not given), the GI50 in assay [1] is 69.3 µM (inactive); in assay [2], 42.9 µM (inactive); in assay [3] it was 18.5 µM (inactive); in [4] it was > 100 µM (inactive); in assay [5] it was 34 µM (inactive); in assay [6], > 100 µM (inactive). For the same compound, the GI50 in assay [7] is 33.3 µM (inactive); in assay [8], 46.1 µM (inactive); in [9], > 100 µM (inactive); in [10], 27.5 µM (inactive); in [12], 22.3 µM (inactive); in assay [13] it was 34 µM (inactive). Further, the GI50 was 48.9 µM (inactive) in [19]; 42.8 µM (inactive) in assay [14]; > 100 µM (inactive) in assay [15]; 70.1 µM (inactive) in [18]; > 100 µM (inactive) in assay [16]; 21.1 µM (inactive) in [17].
Consider `CC(=O)C(=NNc1ccc(-n2c(C)nc3ccccc3c2=O)cc1)C(C)=O`, for which the GI50 in assay [1], in assay [2], in assay [4], in assay [5], in [6] and in assay [7] was > 100 µM (inactive) throughout. Moreover, the GI50 in [8], in [9], in [10], in assay [12], in assay [13] and in assay [19] was > 100 µM (inactive) each time. Also, the GI50 in [14], in [15], in assay [18], in assay [16] and in assay [17] was > 100 µM (inactive) each time.
`C/C=C(\C)[C@@H](O)C(=O)O[C@@H]1CC(C(C)(C)O)[C@](C)(CCC(=O)OC)[C@H]2[C@H](OC(=O)[C@H](O)[C@H](C)CC)C[C@]3(C)C(=CC[C@H]3[C@H]3CO[C@H](C=C(C)C)C3)[C@]12C` (stereo not given in full): the GI50 is 35.3 µM (inactive) in assay [1]; 18.4 µM (inactive) in [2]; 14.9 µM (inactive) in [3]; 15.4 µM (inactive) in assay [4]; 17.8 µM (inactive) in assay [5]; 17.6 µM (inactive) in assay [6]. For the same compound, the GI50 was 18 µM (inactive) in [7]; 18.1 µM (inactive) in assay [8]; 19.8 µM (inactive) in assay [9]; 22.1 µM (inactive) in assay [12]; 19 µM (inactive) in assay [13]; 14.5 µM (inactive) in assay [19]. In addition, the GI50 in [14] is 16.4 µM (inactive); in [15], 15.3 µM (inactive); in assay [16] it was 24.2 µM (inactive); in assay [17], 18.2 µM (inactive).
In the case of `COC(=O)[C@]1(C)CCC[C@@]2(C)[C@@H]3C[C@@H]4[C@H]5C[C@@]3(CC[C@@H]21)C[C@@]45C`, the GI50 in assay [1] is 17.8 µM (inactive); in assay [2] it was 14.6 µM (inactive); in [3], 16.8 µM (inactive); in [4], 17.7 µM (inactive); in assay [5] it was 0.643 µM (active); in assay [6], 16.4 µM (inactive). Moreover, the GI50 in [7] is 20 µM (inactive); in [8], 15.8 µM (inactive); in assay [9] it was 20.5 µM (inactive); in [10], 18 µM (inactive); in assay [11] it was 22.2 µM (inactive); in assay [12], 18.3 µM (inactive). For the same compound, the GI50 was 14.5 µM (inactive) in [13]; 15.7 µM (inactive) in [14]; 15.6 µM (inactive) in assay [15]; 19.2 µM (inactive) in [18]; 15.1 µM (inactive) in [16]; 20.7 µM (inactive) in [17].
Turning to `Cn1c(=O)c2c(nc3n2CCCC(=O)N3CC(O)CCl)n(C)c1=O` (stereo not given), the GI50 in assay [1], in assay [2], in [3], in [4], in assay [5] and in [6] was > 100 µM (inactive) each time. The GI50 in assay [7], in [8], in assay [9], in assay [10], in [12] and in assay [13] was > 100 µM (inactive) in each case. Besides, the GI50 is 50.1 µM (inactive) in assay [19]; > 100 µM (inactive) in assay [14]; > 100 µM (inactive) in [15]; > 100 µM (inactive) in assay [18]; > 100 µM (inactive) in assay [16]; > 100 µM (inactive) in assay [17].
On to `CC(C)(C)C(=O)C(C(=O)c1ccccc1)C(=O)C(C)(C)C`, for which the GI50 in assay [1], in assay [2], in [3], in assay [4], in assay [5] and in assay [6] was > 100 µM (inactive) each time. Besides, the GI50 in [7] is 56.1 µM (inactive); in assay [8] it was > 100 µM (inactive); in assay [9], > 100 µM (inactive); in assay [10] it was > 100 µM (inactive); in assay [11], > 100 µM (inactive); in assay [12], > 100 µM (inactive). Moreover, the GI50 in assay [13] was > 100 µM (inactive); in assay [14] it was 30.5 µM (inactive); in assay [15] it was > 100 µM (inactive); in [18] it was > 100 µM (inactive); in assay [16] it was > 100 µM (inactive); in assay [17], > 100 µM (inactive).
Regarding `COCCN1C(=O)C2c3[nH]c4ccccc4c3C3CCC(C(C)(C)C)CC3C2C1=O` (stereo not given), the GI50 in assay [1] is 18.6 µM (inactive); in assay [2], 22.6 µM (inactive); in [3] it was 18 µM (inactive); in assay [4], 17.5 µM (inactive); in assay [5], 18.9 µM (inactive); in assay [7], 16.4 µM (inactive). Besides, the GI50 is > 10 µM (inactive) in assay [8]; 17.2 µM (inactive) in assay [9]; 22.6 µM (inactive) in assay [10]; 18.7 µM (inactive) in assay [12]; 13.2 µM (inactive) in assay [13]; 11.7 µM (inactive) in [19]. Also, the GI50 in assay [14] was 17.4 µM (inactive); in assay [15], 17.9 µM (inactive); in assay [18], 17.1 µM (inactive); in assay [16], > 10 µM (inactive); in [17], 18.5 µM (inactive).
Turning to `CN(C)CCCNC(=O)c1cc(NC(=O)c2cc(NC(=O)CCCn3c4ccccc4c4ccccc43)cn2C)cn1C`, the GI50 was 13.6 µM (inactive) in [1]; 14.8 µM (inactive) in assay [2]; 14.2 µM (inactive) in assay [3]; 14.4 µM (inactive) in [4]; 3.13 µM (inactive) in assay [5]; 24.8 µM (inactive) in assay [6]. Moreover, the GI50 in [7] is 3.27 µM (inactive); in [8], 27.2 µM (inactive); in assay [9], 15.5 µM (inactive); in assay [10] it was 7.71 µM (inactive); in assay [11] it was 6.03 µM (inactive); in [12], 9.29 µM (inactive). For the same compound, the GI50 in assay [13] is 2.59 µM (inactive); in assay [14], 19.6 µM (inactive); in assay [15], 15.3 µM (inactive); in assay [18], 14.3 µM (inactive); in assay [16] it was 12.4 µM (inactive); in assay [17], 4.41 µM (inactive).
Regarding `O=C(CC(C(=O)c1ccsc1)c1ccccc1)c1ccccc1` (stereo not given), the GI50 in assay [1] was > 100 µM (inactive); in [2], 0.0217 µM (active); in assay [3], 34.8 µM (inactive); in [4], > 100 µM (inactive); in [5], > 100 µM (inactive); in assay [7] it was 75 µM (inactive). The GI50 in assay [8] is > 100 µM (inactive); in assay [9], > 100 µM (inactive); in [10] it was 69.2 µM (inactive); in [12] it was 54.2 µM (inactive); in assay [13] it was > 100 µM (inactive); in assay [19] it was > 100 µM (inactive). The GI50 in assay [14] is 18.7 µM (inactive); in [15], > 100 µM (inactive); in [18], > 100 µM (inactive); in [16] it was > 100 µM (inactive); in assay [17] it was > 100 µM (inactive).
